# Measurements as given in ChEMBL document CHEMBL4507316 (2021).
# Tests used:
# [1] = target: Bone morphogenetic protein receptor type-1A (Homo sapiens) (UniProt P36894); test: BMPR1A ProQinase selectivity panel; details: Compound concentration 1.0 uM
# [2] = target: Platelet-derived growth factor receptor alpha (Homo sapiens) (UniProt P16234); test: PDGFR-alpha wt ProQinase selectivity panel; details: Compound concentration 1.0 uM
# [3] = target: Tyrosine-protein kinase ITK/TSK (Homo sapiens) (UniProt Q08881); test: ITK ProQinase selectivity panel; details: Compound concentration 1.0 uM
# [4] = target: NT-3 growth factor receptor (Homo sapiens) (UniProt Q16288); test: TRK-C ProQinase selectivity panel; details: Compound concentration 1.0 uM
# [5] = target: Inhibitor of nuclear factor kappa-B kinase subunit epsilon (Homo sapiens) (UniProt Q14164); test: IKK-epsilon ProQinase selectivity panel; details: Compound concentration 1.0 uM
# [6] = target: Dual specificity protein kinase CLK3 (Homo sapiens) (UniProt P49761); test: CLK3 ProQinase selectivity panel; details: Compound concentration 1.0 uM
# [7] = target: Ephrin type-A receptor 3 (Homo sapiens) (UniProt P29320); test: EPHA3 ProQinase selectivity panel; details: Compound concentration 1.0 uM
# [8] = target: Serine/threonine-protein kinase B-raf (Homo sapiens) (UniProt P15056); test: B-RAF wt ProQinase selectivity panel; details: Compound concentration 1.0 uM
# [9] = target: Serine/threonine-protein kinase PAK 3 (Homo sapiens) (UniProt O75914); test: PAK3 ProQinase selectivity panel; details: Compound concentration 1.0 uM
# [10] = target: Ephrin type-A receptor 7 (Homo sapiens) (UniProt Q15375); test: EPHA7 ProQinase selectivity panel; details: Compound concentration 1.0 uM
# [11] = target: Fibroblast growth factor receptor 4 (Homo sapiens) (UniProt P22455); test: FGF-R4 ProQinase selectivity panel; details: Compound concentration 1.0 uM
# [12] = target: Leukocyte tyrosine kinase receptor (Homo sapiens) (UniProt P29376); test: LTK ProQinase selectivity panel; details: Compound concentration 1.0 uM
# [13] = target: D(3) dopamine receptor (Homo sapiens) (UniProt P35462); details: Compound concentration 10.0 uM
# [14] = target: Serine/threonine-protein kinase Nek3 (Homo sapiens) (UniProt P51956); test: NEK3 ProQinase selectivity panel; details: Compound concentration 1.0 uM
# [15] = target: Tyrosine-protein kinase Fyn (Homo sapiens) (UniProt P06241); test: FYN ProQinase selectivity panel; details: Compound concentration 1.0 uM
# [16] = target: Protein kinase C beta type (Homo sapiens) (UniProt P05771); test: PKC-beta1 ProQinase selectivity panel; details: Compound concentration 1.0 uM
# [17] = target: Non-receptor tyrosine-protein kinase TYK2 (Homo sapiens) (UniProt P29597); test: TYK2 ProQinase selectivity panel; details: Compound concentration 1.0 uM
# Chain of Non-receptor tyrosine-protein kinase TYK2 (Homo sapiens) (P29597 whole entry): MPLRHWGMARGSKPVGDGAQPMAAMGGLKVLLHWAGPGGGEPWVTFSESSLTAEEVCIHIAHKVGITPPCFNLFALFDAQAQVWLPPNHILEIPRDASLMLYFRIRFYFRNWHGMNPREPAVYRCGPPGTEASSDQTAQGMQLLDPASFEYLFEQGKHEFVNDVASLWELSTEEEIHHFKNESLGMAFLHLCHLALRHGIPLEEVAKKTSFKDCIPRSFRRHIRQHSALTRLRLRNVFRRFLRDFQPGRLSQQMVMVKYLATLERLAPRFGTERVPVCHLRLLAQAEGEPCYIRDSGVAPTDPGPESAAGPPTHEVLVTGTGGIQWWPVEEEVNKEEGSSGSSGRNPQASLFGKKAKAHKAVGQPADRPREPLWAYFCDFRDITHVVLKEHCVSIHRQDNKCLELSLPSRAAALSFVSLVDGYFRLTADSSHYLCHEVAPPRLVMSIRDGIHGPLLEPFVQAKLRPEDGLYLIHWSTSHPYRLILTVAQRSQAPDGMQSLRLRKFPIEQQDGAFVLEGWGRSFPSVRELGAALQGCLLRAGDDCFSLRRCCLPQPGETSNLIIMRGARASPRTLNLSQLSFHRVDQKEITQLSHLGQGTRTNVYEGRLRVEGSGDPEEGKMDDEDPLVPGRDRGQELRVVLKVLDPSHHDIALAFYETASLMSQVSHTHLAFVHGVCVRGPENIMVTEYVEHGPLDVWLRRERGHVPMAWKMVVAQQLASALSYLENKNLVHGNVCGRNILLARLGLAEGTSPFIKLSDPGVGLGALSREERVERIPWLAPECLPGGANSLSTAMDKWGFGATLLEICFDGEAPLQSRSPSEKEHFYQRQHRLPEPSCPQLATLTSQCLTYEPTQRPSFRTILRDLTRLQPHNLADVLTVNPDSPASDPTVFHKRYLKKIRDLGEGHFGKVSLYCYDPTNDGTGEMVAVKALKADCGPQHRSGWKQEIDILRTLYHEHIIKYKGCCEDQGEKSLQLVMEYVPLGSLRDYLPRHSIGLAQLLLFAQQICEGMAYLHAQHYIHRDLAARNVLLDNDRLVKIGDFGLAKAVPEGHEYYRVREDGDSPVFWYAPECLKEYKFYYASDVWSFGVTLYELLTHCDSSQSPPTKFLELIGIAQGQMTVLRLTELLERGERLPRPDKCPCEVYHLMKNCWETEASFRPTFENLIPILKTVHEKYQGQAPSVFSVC
# [18] = target: Dual specificity protein kinase TTK (Homo sapiens) (UniProt P33981); test: TTK ProQinase selectivity panel; details: Compound concentration 1.0 uM
# Chain of Dual specificity protein kinase TTK (Homo sapiens) (P33981 whole entry): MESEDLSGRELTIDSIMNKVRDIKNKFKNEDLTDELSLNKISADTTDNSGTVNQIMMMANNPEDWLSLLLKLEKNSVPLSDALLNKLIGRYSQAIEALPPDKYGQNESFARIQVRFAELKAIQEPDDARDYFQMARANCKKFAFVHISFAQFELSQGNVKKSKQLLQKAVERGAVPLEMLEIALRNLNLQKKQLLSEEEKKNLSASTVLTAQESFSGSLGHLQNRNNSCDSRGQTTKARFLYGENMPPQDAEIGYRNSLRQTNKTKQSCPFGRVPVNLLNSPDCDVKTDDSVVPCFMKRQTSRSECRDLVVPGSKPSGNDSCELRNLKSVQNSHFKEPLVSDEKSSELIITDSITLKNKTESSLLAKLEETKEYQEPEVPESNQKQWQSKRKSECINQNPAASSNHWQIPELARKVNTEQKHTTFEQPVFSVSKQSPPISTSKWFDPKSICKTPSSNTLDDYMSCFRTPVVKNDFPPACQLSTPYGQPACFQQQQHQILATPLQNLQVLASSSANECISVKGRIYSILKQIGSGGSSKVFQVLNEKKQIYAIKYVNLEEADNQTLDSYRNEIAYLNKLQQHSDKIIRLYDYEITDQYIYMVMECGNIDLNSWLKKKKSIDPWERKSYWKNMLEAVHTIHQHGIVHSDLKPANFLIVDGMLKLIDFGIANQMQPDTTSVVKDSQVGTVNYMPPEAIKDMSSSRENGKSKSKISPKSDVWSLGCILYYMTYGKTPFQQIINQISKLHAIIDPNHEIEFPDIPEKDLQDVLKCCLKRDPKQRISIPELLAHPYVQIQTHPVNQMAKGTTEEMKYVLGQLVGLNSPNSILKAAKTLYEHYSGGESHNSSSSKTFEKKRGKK
# [19] = target: 5-hydroxytryptamine receptor 6 (Homo sapiens) (UniProt P50406); details: Compound concentration 10.0 uM
# [20] = target: Sodium-dependent dopamine transporter (Homo sapiens, UniProt Q01959); test: GPCRScan assay: inhibition of DAT; set-up: radioligand conc. used [nm] 3.6 – 16.0, parental cells stable HEK
# Chain of Sodium-dependent dopamine transporter (Q01959 whole entry): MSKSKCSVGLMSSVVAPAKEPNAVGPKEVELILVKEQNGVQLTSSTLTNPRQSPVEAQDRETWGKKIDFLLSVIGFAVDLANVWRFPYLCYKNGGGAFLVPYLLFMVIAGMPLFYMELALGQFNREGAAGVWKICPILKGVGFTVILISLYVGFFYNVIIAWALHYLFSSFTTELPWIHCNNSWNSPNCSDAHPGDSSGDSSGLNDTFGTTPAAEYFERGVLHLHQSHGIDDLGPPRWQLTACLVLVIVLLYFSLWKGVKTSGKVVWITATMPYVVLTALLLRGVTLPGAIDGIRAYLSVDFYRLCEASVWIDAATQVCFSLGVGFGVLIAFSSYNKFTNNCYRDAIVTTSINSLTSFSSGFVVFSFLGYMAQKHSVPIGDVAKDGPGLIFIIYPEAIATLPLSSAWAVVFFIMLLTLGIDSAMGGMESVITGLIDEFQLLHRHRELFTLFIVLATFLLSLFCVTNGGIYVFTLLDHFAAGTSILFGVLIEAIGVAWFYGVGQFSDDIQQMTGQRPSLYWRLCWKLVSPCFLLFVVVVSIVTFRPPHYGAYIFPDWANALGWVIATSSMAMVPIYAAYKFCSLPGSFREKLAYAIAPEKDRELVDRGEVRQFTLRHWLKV
# [21] = target: D(1B) dopamine receptor (Homo sapiens) (UniProt P21918); details: Compound concentration 10.0 uM
# [22] = target: Megakaryocyte-associated tyrosine-protein kinase (Homo sapiens) (UniProt P42679); test: MATK ProQinase selectivity panel; details: Compound concentration 1.0 uM
# [23] = target: PAS domain-containing serine/threonine-protein kinase (Homo sapiens) (UniProt Q96RG2); test: PASK ProQinase selectivity panel; details: Compound concentration 1.0 uM
# Chain of PAS domain-containing serine/threonine-protein kinase (Homo sapiens) (Q96RG2 whole entry, the tested form may be a part): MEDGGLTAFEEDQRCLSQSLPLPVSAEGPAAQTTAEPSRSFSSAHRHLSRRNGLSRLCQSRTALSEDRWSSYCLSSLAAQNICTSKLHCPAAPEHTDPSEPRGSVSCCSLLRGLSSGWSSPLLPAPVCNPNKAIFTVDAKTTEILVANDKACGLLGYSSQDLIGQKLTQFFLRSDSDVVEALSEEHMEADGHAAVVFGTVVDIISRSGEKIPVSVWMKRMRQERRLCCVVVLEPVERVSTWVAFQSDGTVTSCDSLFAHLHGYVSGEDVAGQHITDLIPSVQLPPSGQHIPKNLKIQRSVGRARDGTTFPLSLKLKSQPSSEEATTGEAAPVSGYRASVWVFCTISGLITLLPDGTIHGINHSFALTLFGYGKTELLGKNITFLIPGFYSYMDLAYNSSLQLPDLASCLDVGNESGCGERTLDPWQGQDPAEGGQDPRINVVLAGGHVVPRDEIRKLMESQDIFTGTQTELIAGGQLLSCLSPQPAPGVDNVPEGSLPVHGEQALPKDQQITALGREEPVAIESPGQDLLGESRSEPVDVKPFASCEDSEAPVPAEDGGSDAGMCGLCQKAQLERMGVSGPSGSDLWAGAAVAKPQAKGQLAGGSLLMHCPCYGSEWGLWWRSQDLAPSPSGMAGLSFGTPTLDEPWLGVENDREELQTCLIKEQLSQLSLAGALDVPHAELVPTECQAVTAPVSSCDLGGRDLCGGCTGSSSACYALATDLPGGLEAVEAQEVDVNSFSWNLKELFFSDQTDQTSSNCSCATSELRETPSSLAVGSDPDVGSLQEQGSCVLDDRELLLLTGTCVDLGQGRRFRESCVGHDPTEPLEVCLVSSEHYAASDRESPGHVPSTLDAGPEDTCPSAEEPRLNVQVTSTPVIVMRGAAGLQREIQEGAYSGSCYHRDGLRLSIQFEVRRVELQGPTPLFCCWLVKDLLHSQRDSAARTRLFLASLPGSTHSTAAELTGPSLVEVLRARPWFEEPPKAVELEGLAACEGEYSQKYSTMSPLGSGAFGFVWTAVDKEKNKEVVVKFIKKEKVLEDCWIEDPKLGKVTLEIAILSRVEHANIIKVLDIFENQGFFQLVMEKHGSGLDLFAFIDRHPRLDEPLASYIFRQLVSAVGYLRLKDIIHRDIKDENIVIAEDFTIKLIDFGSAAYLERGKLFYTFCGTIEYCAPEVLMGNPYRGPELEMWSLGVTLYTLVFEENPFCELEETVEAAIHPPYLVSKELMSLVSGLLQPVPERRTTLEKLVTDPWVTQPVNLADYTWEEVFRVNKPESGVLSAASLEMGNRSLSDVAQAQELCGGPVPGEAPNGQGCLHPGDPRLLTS
# [24] = target: Calcium/calmodulin-dependent protein kinase kinase 2 (Homo sapiens) (UniProt Q96RR4); test: CAMKK2 ProQinase selectivity panel; details: Compound concentration 1.0 uM
# Chain of Calcium/calmodulin-dependent protein kinase kinase 2 (Homo sapiens) (Q96RR4 2-588 limits assumed): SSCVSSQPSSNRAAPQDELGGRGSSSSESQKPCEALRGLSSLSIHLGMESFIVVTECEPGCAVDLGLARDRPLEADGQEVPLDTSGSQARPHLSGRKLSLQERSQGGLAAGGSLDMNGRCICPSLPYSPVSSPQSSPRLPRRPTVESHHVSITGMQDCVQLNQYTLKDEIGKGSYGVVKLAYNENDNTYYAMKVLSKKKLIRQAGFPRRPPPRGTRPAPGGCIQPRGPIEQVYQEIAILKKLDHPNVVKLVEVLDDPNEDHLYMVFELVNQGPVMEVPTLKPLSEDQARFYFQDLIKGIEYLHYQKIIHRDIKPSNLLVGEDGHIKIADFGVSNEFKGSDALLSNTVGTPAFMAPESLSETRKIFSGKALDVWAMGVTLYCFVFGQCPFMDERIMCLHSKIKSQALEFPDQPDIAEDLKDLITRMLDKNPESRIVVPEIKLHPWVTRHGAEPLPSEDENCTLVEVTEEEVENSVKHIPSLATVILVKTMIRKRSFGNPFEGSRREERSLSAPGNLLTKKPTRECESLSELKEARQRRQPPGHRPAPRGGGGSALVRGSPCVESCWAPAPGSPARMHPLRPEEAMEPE
# [25] = target: Histamine H1 receptor (Homo sapiens) (UniProt P35367); details: Compound concentration 10.0 uM
# [26] = target: Lymphokine-activated killer T-cell-originated protein kinase (Homo sapiens) (UniProt Q96KB5); test: PBK ProQinase selectivity panel; details: Compound concentration 1.0 uM
# [27] = test system: Hepatocyte growth factor receptor (Homo sapiens), P08581 [Y1230C]; test: MET Y1230C ProQinase selectivity panel; details: Compound concentration 1.0 uM
# [28] = test system: Receptor-type tyrosine-protein kinase FLT3 (Homo sapiens), P36888 [D835Y]; test: FLT3 D835Y ProQinase selectivity panel; details: Compound concentration 1.0 uM
# [29] = target: Mitogen-activated protein kinase kinase kinase kinase 5 (Homo sapiens) (UniProt Q9Y4K4); test: MAP4K5 ProQinase selectivity panel; details: Compound concentration 1.0 uM
# [30] = target: Mitogen-activated protein kinase kinase kinase 11 (Homo sapiens) (UniProt Q16584); test: MAP3K11 ProQinase selectivity panel; details: Compound concentration 1.0 uM
# [31] = target: CDK8/Cyclin C (Homo sapiens) (UniProt P49336+P24863); test: CDK8/CycC ProQinase selectivity panel; assay type: protein-complex assay; details: Compound concentration 1.0 uM
# [32] = target: Eukaryotic elongation factor 2 kinase (Homo sapiens) (UniProt O00418); test: EEF2K ProQinase selectivity panel; details: Compound concentration 1.0 uM
# [33] = target: Dual specificity tyrosine-phosphorylation-regulated kinase 1B (Homo sapiens) (UniProt Q9Y463); test: DYRK1B ProQinase selectivity panel; details: Compound concentration 1.0 uM
# [34] = target: Homeodomain-interacting protein kinase 3 (Homo sapiens) (UniProt Q9H422); test: HIPK3 ProQinase selectivity panel; details: Compound concentration 1.0 uM
# [35] = target: 5-hydroxytryptamine receptor 2C (Homo sapiens) (UniProt P28335); details: Compound concentration 10.0 uM
# [36] = test system: Epidermal growth factor receptor (Homo sapiens), P00533 [L858R]; test: EGF-R L858R ProQinase selectivity panel; details: Compound concentration 1.0 uM
# [37] = target: TGF-beta receptor type-1 (Homo sapiens) (UniProt P36897); test: TGFB-R1 ProQinase selectivity panel; details: Compound concentration 1.0 uM
# [38] = target: Ribosomal protein S6 kinase beta-2 (Homo sapiens) (UniProt Q9UBS0); test: S6K-beta ProQinase selectivity panel; details: Compound concentration 1.0 uM
# [39] = target: Cyclin-dependent kinase 2/cyclin E (Homo sapiens) (UniProt P24864+P24941+O96020); test: CDK2/CycE ProQinase selectivity panel; assay type: protein-complex assay; details: Compound concentration 1.0 uM
# [40] = target: 5-hydroxytryptamine receptor 2A (Homo sapiens, UniProt P28223); details: Compound concentration 10.0 uM
# [41] = target: Protein kinase C theta type (Homo sapiens) (UniProt Q04759); test: PKC-theta ProQinase selectivity panel; details: Compound concentration 1.0 uM
# [42] = test system: Epidermal growth factor receptor (Homo sapiens), P00533 [UNDEFINED MUTATION]; test: EGF-R d746-750 ProQinase selectivity panel; details: Compound concentration 1.0 uM
# [43] = test system: Fibroblast growth factor receptor 3 (Homo sapiens), P22607 [K650E]; test: FGF-R3 K650E ProQinase selectivity panel; details: Compound concentration 1.0 uM
# [44] = target: Mitogen-activated protein kinase 9 (Homo sapiens) (UniProt P45984); test: JNK2 ProQinase selectivity panel; details: Compound concentration 1.0 uM
# [45] = target: Activin receptor type-1 (Homo sapiens) (UniProt Q04771); test: ACV-R1 ProQinase selectivity panel; details: Compound concentration 1.0 uM
# [46] = test system: Proto-oncogene tyrosine-protein kinase receptor Ret (Homo sapiens), P07949 [V804L]; test: RET V804L ProQinase selectivity panel; details: Compound concentration 1.0 uM
# [47] = target: Mitogen-activated protein kinase 14 (Homo sapiens) (UniProt Q16539); test: p38-alpha ProQinase selectivity panel; details: Compound concentration 1.0 uM
# Chain of Mitogen-activated protein kinase 14 (Homo sapiens) (Q16539 whole entry): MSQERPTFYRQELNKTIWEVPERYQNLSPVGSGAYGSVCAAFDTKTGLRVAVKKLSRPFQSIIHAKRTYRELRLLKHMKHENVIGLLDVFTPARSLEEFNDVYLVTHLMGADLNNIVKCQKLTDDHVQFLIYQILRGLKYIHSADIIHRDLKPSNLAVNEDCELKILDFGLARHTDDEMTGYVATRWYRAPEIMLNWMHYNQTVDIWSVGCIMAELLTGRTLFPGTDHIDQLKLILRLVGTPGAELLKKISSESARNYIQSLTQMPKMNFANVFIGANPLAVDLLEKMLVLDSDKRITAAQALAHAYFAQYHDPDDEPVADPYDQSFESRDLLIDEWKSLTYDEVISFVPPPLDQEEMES
# [48] = target: Protein kinase C gamma type (Homo sapiens) (UniProt P05129); test: PKC-gamma ProQinase selectivity panel; details: Compound concentration 1.0 uM
# [49] = test system: Platelet-derived growth factor receptor alpha (Homo sapiens), P16234 [T674I]; test: PDGFR-alpha T674I ProQinase selectivity panel; details: Compound concentration 1.0 uM
smiles,measurement,setting,value
O=C1c2ccc(Nc3ccc(F)cc3F)cc2CCc2ccc(OC[C@H](O)CO)cc21 [Skepinone-L],% Residual activity with Skepinone-L,[1],100%
same,% Residual activity with Skepinone-L,[2],91%
same,% Residual activity with Skepinone-L,[3],97%
same,% Residual activity with Skepinone-L,[4],120%
same,% Residual activity with Skepinone-L,[5],103%
same,% Residual activity with Skepinone-L,[6],88%
same,% Residual activity with Skepinone-L,[7],107%
same,% Residual activity with Skepinone-L,[8],112%
same,% Residual activity with Skepinone-L,[9],107%
same,% Residual activity with Skepinone-L,[10],109%
same,% Residual activity with Skepinone-L,[11],103%
same,% Residual activity with Skepinone-L,[12],97%
same,inhibition,[13],-7.71%
same,% Residual activity with Skepinone-L,[14],85%
same,% Residual activity with Skepinone-L,[15],124%
same,% Residual activity with Skepinone-L,[16],103%
same,% Residual activity with Skepinone-L,[17],96%
same,% Residual activity with Skepinone-L,[18],83%
same,inhibition,[19],14.8%
same,Ki,[20],> 10 µM
same,pKi,[20],< 5
same,inhibition,[21],21%
same,% Residual activity with Skepinone-L,[22],111%
same,% Residual activity with Skepinone-L,[23],88%
same,% Residual activity with Skepinone-L,[24],97%
same,inhibition,[25],12.7%
same,% Residual activity with Skepinone-L,[26],113%
same,% Residual activity with Skepinone-L,[27],97%
same,% Residual activity with Skepinone-L,[28],101%
same,% Residual activity with Skepinone-L,[29],84%
same,% Residual activity with Skepinone-L,[30],114%
same,% Residual activity with Skepinone-L,[31],105%
same,% Residual activity with Skepinone-L,[32],88%
same,% Residual activity with Skepinone-L,[33],102%
same,% Residual activity with Skepinone-L,[34],91%
same,inhibition,[35],24%
same,% Residual activity with Skepinone-L,[36],89%
same,% Residual activity with Skepinone-L,[37],93%
same,% Residual activity with Skepinone-L,[38],89%
same,% Residual activity with Skepinone-L,[39],85%
same,inhibition,[40],73.1%
same,% Residual activity with Skepinone-L,[41],99%
same,% Residual activity with Skepinone-L,[42],100%
same,% Residual activity with Skepinone-L,[43],99%
same,% Residual activity with Skepinone-L,[44],58%
same,% Residual activity with Skepinone-L,[45],94%
same,% Residual activity with Skepinone-L,[46],115%
same,% Residual activity with Skepinone-L,[47],0%
same,% Residual activity with Skepinone-L,[48],99%
same,% Residual activity with Skepinone-L,[49],97%
